Series [1] can be described thus: Diffusion through a lipoidal membrane barrier (trans-cellular absorption). The class given is physicochemical. The following applies: laceryl alcohol/caprytic acid lipid membrane. As for the experimental part: The diffusion rates of the Compound of Example 3 and the active compound, 4-[3-[2-dimethylamino)ethyl]-1H-indol-5-ylmethyl]-2-oxazolidinone, through a lipoidal membrane barrier (laceryl alcohol/caprytic acid lipid membrane) were determined and compared.

Series [2] is described as follows: Plasma concentrations in rats after intravenous administration. In kind it is in vivo, rat. On the procedure: (§1) Investigations were carried out in rats to determine whether 4-[1-Acetyl-3-[2-(dimethylamino)ethyl]indol-5-ylmethyl]oxazolidin-2-one acetate (compound of Example 6) acts as a prodrug for the pharmacologically active compound 4-[3-[2-(dimethylamino)ethyl]-1H-indol-5-ylmethyl]-2-oxazolidinone described in EP-A-0486666. The compound of Example 6 was incubated with rat plasma at a concentration of approx. 0.2 μg/ml for up to 4 h. At selected times the incubations were terminated by addition of acetone and the concentrations of both 4-[1-Acetyl-3-[2-(dimethylamino)ethyl]indol-5-ylmethyl]oxazolidin-2-one acetate and its breakdown product 4-[3-[2-(dimethylamino)ethyl]-1H-indol-5-ylmethyl]-2-oxazolidinone were determined by HPLC assay. In addition rats were administered 4-[1-Acetyl-3-[2-(dimethylamino)ethyl]indol-5-ylmethyl]oxazolidin-2-one acetate intravenously at a dose of 4 mg/kg and the plasma and brain concentrations of this compound and the breakdown product, 4-[3-[2-(Dimethylamino)ethyl]-1H-indol-5-ylmethyl]- 2-oxazolidinone were determined up to 8 h after administration.
After intravenous administration, the peak plasma concentration (Cmax) of 4-[1-acetyl-3-[2-(dimethylamino)ethyl]indol-5-ylmethyl]oxazolidin-2-one acetate was approx 0.2 μg/ml (5 min) and this parent compound was detectable up to 1 h post dose (limit of detection 0.02 μg/ml); the plasma half-life was approximately 0.2 h. The breakdown product, 4-[3-[2-(dimethylamino) ethyl]-1H-indol-5-ylmethyl]-2-oxazolidinone was also detected in the plasma (Cmax 0.3 μg/ml, 5 min) up to 4 h after dosage.

A short description of series [3]: Incubation of compound with rat plasma, HPLC assay of parent and breakdown product. In kind it is in vitro ADME. As for the experimental part:
as §1
4-[1-Acetyl-3-[2-(dimethylamino)ethyl]indol-5-ylmethyl]oxazolidin-2-one acetate was converted to 4-[3-[2-(Dimethylamino)ethyl]-1H-indol-5-ylmethyl]-2-oxazolidinone in rat plasma, with a half-life of approximately 3 h. After 4 h incubation only 30% of the parent compound of example 6 remained.

Series [4] is described as follows: Incubation with rat hepatocytes (conversion to active compound). In kind it is in vitro ADME. On the procedure: The compound of Example 3 was incubated with rat hepalocytes to determine whether the active compound, 4-[3-[2-(dimethylamino)ethyl]-1H-indol-5-ylmethyl]-2-oxazolidinone, is a main product of its metabolism.

The structures appear in SMILES notation.

Three molecules from patent US6423731B1, “Indole derivatives as prodrugs of 5-HT1-like receptor agonists” (Zeneca Limited, priority 1994, dated 2002) can be followed below.

What is called half-life is the time in which the quantity being followed falls by half. By melting point is commonly meant the temperature, or range, at which the solid turns liquid.

On to `CN(C)CCc1c[nH]c2ccc(CC3COC(=O)N3)cc12` (stereo not drawn) [Active compound, 4-[3-[2-(dimethylamino)ethyl]-1H-indol-5-ylmethyl]-2-oxazolidinone, reference compound], for which the “Diffusion Rate” value in series [1] stood at 0.68 cm/min/1000. The “breakdown product detected in plasma up to, after dosage” value in series [2] (rat, in vivo, iv, 4 mg/kg) is “up to 4 h”.
For the molecule `CC(=O)O.CC(=O)n1cc(CCN(C)C)c2cc(CC3COC(=O)N3)ccc21` (stereo not drawn) [Example 6, 4-[1-Acetyl-3-[2-(dimethylamino)ethyl]indol-5-ylmethyl]oxazolidin-2-one acetate], the half-life in series [2] (in vivo, rat, intravenous, 4 mg/kg) was roughly 0.2 h. In series [2] (in vivo, rat, intravenous, 4 mg/kg, read-out: peak plasma concentration (Cmax) of parent compound), the Cmax was roughly 200 ng/mL. For the same molecule, the “parent compound detectable in plasma up to, post dose” value in series [2] (rat, intravenous, 4 mg/kg, limit of detection 0.02 μg/ml) is “up to 1 h”. Moreover, the “conversion into active compound in rats” value in series [2] (rats, plasma incubation and intravenous experiments) is “is converted into 4-[3-[2-(dimethylamino)ethyl]-1H-indol-5-ylmethyl]-2-oxazolidinone in rats”. Besides, in series [3] (rat plasma incubation, approx. 0.2 μg/ml, up to 4 h, read-out: half-life of conversion to 4-[3-[2-(Dimethylamino)ethyl]-1H-indol-5-ylmethyl]-2-oxazolidinone in rat plasma (converted)), the half-life at 0.2 μg/ml was roughly 3 h. Further, in series [3] (rat plasma, after 4 h incubation), the parent compound remaining is on record as 30%.
Regarding `CC(=O)O.Cc1ccccc1C(=O)n1cc(CCN(C)C)c2cc(CC3COC(=O)N3)ccc21` (stereo not drawn) [Example 3, 4-[1-(2-toluoyl)-3-[2-(dimethylamino)ethyl]indol-5-ylmethyl]oxazolidin-2-one acetate], the melting point was in the range of 51.5 to 54 °C. Moreover, the “Diffusion Rate” value in series [1] is 3.88 cm/min/1000. The “conversion into the active compound” value in series [4] was “extensively and rapidly converted into the active compound”. In addition, in series [4] (after 30 minutes incubation), the compound remaining entry is reported as “no compound of Example 3 remained”.
